Measured values taken from patent US20170348371A1, “THE ANTI CANCEROUS, ANTIPARASITE (TOXOPLASMA GONDII (PROTOZOON) AND ANTIMICROBIAL EFFECT AND DOSAGE OF NIGELLA (NIGELLA SATIVA) EXTRACT” (priority 2014, published 2017).

Experiments:
Hep2 cells = experiment: MTT cytotoxicity test on Hep2 cell line; type: cell-based, Human
Text: The oils of the plant as an extract are used which have been obtained by cold pressing and it has been ensured that the extract is fresh and pure. The extracts that have been obtained through the whole study have been initially diluted with solvents, filtered and sterilized. […] The maximum dose and dilution sub doses that have been determined accordingly have been repeated controlled groups. Different amounts of Hep2 cells have been tested in flat bottomed 96 well plates for cell culture during the first stage of the study and it has been determined that […] cells were optimal for the monolayer layer of 2×10^4 cell per well. A pure oil of Nigella plant extract, which has been tested inside various solvents in terms of penetration into cells and homogenous distribution. MTT tests have been carried out relating to Hep2 cells in solvents too. DMSO was selected from solvents such as DMSO and Methanol and was used and cytopathic doses have not been exceeded during the whole study (FIG. 2). Essential oil has been obtained from Nigella and emulsions have been obtained from fixed oil plants (Ginger etc.) and compounds.

Toxoplasma gondii = experiment: ELISA test of efficiency against Toxoplasma gondii in infected Hep2 cells; type: cell-based; settings: for ELISA value in comparison to PK / ELISA OD value according to positive control (reproduction): 48 hours; for ELISA value: 72 hour plates
Text: An ELISA (Enzyme-Linked Immunosorbent Assay) test (FIG. 4) has been planned and conducted in order to determine efficiency against Toxoplasma gondii.
The ELISA test has been carried out on flat bottom well plates having 96 wells. First of all the base of the plates have been covered with a suitable amount of Hep2 cells. […] Following this all wells have been processed again with different doses (determined with MTT) of Pyrimtheamine, Sulphadiazine and Nigella Sativa extract, prepared with DMSO.
The result was read by the ELISA reader device in 30 minutes

Nc1ccc(S(=O)(=O)Nc2ncccn2)cc1 [Sulphadiazine]
OD value in MTT test (Hep2 cells; 50 μg/ml): 1,002
OD value in MTT test (Hep2 cells; 100 μg/ml): 0.827
OD value in MTT test (Hep2 cells; 200 μg/ml): 0.254
ELISA value in comparison to PK (Toxoplasma gondii; 25 μg/ml): 80%
ELISA value in comparison to PK (Toxoplasma gondii; 50 μg/ml): 97%
ELISA value in comparison to PK (Toxoplasma gondii; 4th dose of series from 100 μg/ml (concentration not given)): 79%
ELISA value in comparison to PK (Toxoplasma gondii; 5th dose of series from 100 μg/ml (concentration not given)): 61%
ELISA value in comparison to PK (Toxoplasma gondii; 6th dose of series from 100 μg/ml (concentration not given)): 95%
ELISA value in comparison to PK (Toxoplasma gondii; 7th dose of series from 100 μg/ml (concentration not given)): 84%
ELISA value in comparison to PK (Toxoplasma gondii; 8th dose of series from 100 μg/ml (concentration not given)): 97%
ELISA value in comparison to PK (Toxoplasma gondii; concentration of 100 (unit not given)): 51%
ELISA value (Toxoplasma gondii; 100 μg/ml (1st dose)): 52%
ELISA value (Toxoplasma gondii; 2nd dose of series starting from 100 μg/ml): 57%
ELISA value (Toxoplasma gondii; 3rd dose of series starting from 100 μg/ml): 52%
ELISA value (Toxoplasma gondii; 4th dose of series starting from 100 μg/ml): 77%
ELISA value (Toxoplasma gondii; 5th dose of series starting from 100 μg/ml): 75%
ELISA value (Toxoplasma gondii; 6th dose of series starting from 100 μg/ml): 55%
ELISA value (Toxoplasma gondii; 7th dose of series starting from 100 μg/ml): 52%
ELISA value (Toxoplasma gondii; 8th dose of series starting from 100 μg/ml): 84%

CCc1nc(N)nc(N)c1-c1ccc(Cl)cc1 [Pyrimethamine]
OD value in MTT test (Hep2 cells; 1 μg/ml): 1,228
OD value in MTT test (Hep2 cells; 2 μg/ml): 1,198
OD value in MTT test (Hep2 cells; 4 μg/ml): 0.623
OD value in MTT test (Hep2 cells; 8 μg/ml): 0.310
OD value in MTT test (Hep2 cells; 16 μg/ml): 0.209
OD value in MTT test (Hep2 cells; 32 μg/ml): 0.097
ELISA OD value according to positive control (reproduction) (Toxoplasma gondii; 0.5 μg/ml): 75%
ELISA OD value according to positive control (reproduction) (Toxoplasma gondii; 1 μg/ml (printed '2.1 and 0.5 μg/ml doses')): 54%
ELISA OD value according to positive control (reproduction) (Toxoplasma gondii; 2 μg/ml (printed '2.1 and 0.5 μg/ml doses')): 56%
ELISA OD value according to positive control (reproduction) (Toxoplasma gondii; 4 μg/ml): 45%
ELISA value (Toxoplasma gondii; 4 μg/ml (1st dose)): 48%
ELISA value (Toxoplasma gondii; 2nd dose of series starting from 4 μg/ml): 29%
ELISA value (Toxoplasma gondii; 3rd dose of series starting from 4 μg/ml): 36%
ELISA value (Toxoplasma gondii; 4th dose of series starting from 4 μg/ml): 41%
ELISA value (Toxoplasma gondii; 5th dose of series starting from 4 μg/ml): 32%
ELISA value (Toxoplasma gondii; 6th dose of series starting from 4 μg/ml): 27%
ELISA value (Toxoplasma gondii; 7th dose of series starting from 4 μg/ml): 27%
ELISA value (Toxoplasma gondii; 8th dose of series starting from 4 μg/ml): 73%
